Results taken from patent US9724337B2, “AG-205 for the treatment of breast cancer” (University of Kentucky Research Foundation, priority 2009, dated 2017).

Legend:
HCC827 = experiment: AG-205 viability assay in HCC827 cells; type: cell-based
Description: (§1) Tissue culture. MDA-MB-468 cells were a kind gift from Dr. Rina Plattner of the University of Kentucky and were maintained in medium consisting of Dulbecco's Modified Eagle Medium containing 10% serum supreme (Fisher) and antibiotics. Cells were grown at 37° C. in 5% CO2 in air. A549 and HCC827 lung cancer cells, as well as SK-Br-3 breast cancer cells were obtained from the ATCC (American Type Culture Collection) and were grown under the same conditions. The H1650 lung cancer cell line was a kind gift from Dr. Heinz Kohler of the University of Kentucky. The Pgrmc1 ligand AG-205 was purchased from Timtec, Inc. The EGFR inhibitor AG1478 was from Biomol, Inc. and was used at a concentration range of 0.8-40 μM.
Proliferation, anchorage-independent growth and migration assays. For growth curves, cells were plated in 24 well dishes and grown in 10% serum-containing medium. […] Following the harvest of the final time point, the cells from each time point were counted using a Bright-line hemocytometer (Hausser Scientific).
MTT viability assays were performed as described previously. […] The cells were then incubated with 0.5 mg/ml of 3-[4,5-dimethylthiazol-2-y]-2,5-diphenyltetrazolium bromide for 1.5 hours, at which time the media was removed, the precipitated crystals were dissolved in dimethyl sulfoxide, and the absorbance at 590 nm was measured using a Bio-Tek μQuant spectrophotometer.

ku70 [1] = experiment: Western blot of ku70 levels in MDA-MB-468 cells; type: cell-based, human; conditions: AG-205 treatment
Description: (§2) Panel A is a diagram indicating the positions of the siRNA molecules targeting Pgrmc1. Exons 1, 2 and 3 are indicated by “ex”. MDA-MB-468 cells were transfected with a control siRNA (siCON, lanes 1 and 3) or two separate siRNAs targeting Pgrmc1 (siPGR and siPGR2, lanes 2 and 4, respectively). In panels B-E and H-L, protein levels were analyzed by western blot for EGFR (B), phospho-tyrosine (C), Pgrmc1 (D) and ku70 (E), as a control for protein loading. Panels F—H show western blot analyses for (F) IGF-1R, (G) c-Kit and (H) tfR. In panels I and J, transcript levels were analyzed by reverse transcriptase-PCR for EGFR (I) and Pgrmc1 (J). The top band indicates the gene of interest, while actin primers were included in the same reaction as a control for cDNA loading. […] In panels K-L, MDA-MB-468 cells were treated with increasing doses of the Pgrmc1 ligand AG-205. Protein expression was analyzed by western blot for EGFR (K) and ku70 (L). Cells were treated with 0 (lanes 1), 2 (lanes 2), 10 (lanes 3) or 50 (lanes 4) μM AG-205 for 24 hours in serum-free medium. In panels M-N, A549 cells were treated with the same doses and analyzed for EGFR (M) and ku70 (N). […] Expression analyses were repeated at least in duplicate throughout.
(§3) Immunological techniques. […]

A549 cells [2] = experiment: FACS cell cycle analysis; type: cell-based, human; conditions: triplicate FACS analysis, AG-205-treated cells
Description: (A) Graph of triplicate FACS analysis. […] (B) Protein expression was analyzed by western blot for Pgrmc1 (top) and ku70 (bottom). Cells were treated with 0 (lanes 1), 2 (lanes 2), 10 (lanes 3) or 50 (lanes 4) μM AG-205 for 24 hours. […] (C-D) The panels show western blots of phosphorylated ERK1/2 (upper panels) and total ERK1/2 (lower panels) The lanes in panel C are A549/con (lane 1), A549/RNAi (lane 2), A549/LacZ (lane 3) and A549/PGR-hbd cells (lane 4) following 48 hours serum starvation. The cells infected with adenovirus were similar to those described in FIG. 3, panels C and D. In panel D, A549 cells were treated with vehicle (lane 1) or 20 μM AG-205 (lane 2) for 24 hours in serum-free media. (E) A549/con (solid line) or A549/RNAi (dashed line) cells were treated with increasing doses of AG-205 for 72 hours and viability was measured by counting, and “% viability” refers to the cell number relative to the untreated control. […] Percent viability was determined by cell counting, and “% viability” refers to the cell number relative to the untreated control. […]
FACS was performed essentially as described previously (Mallory (2005)). […] FACS analysis was performed at the University of Kentucky flow cytometry facility, and the data were analyzed using Modfit software (Verity, Inc.).

Pgrmc1 [3] = molecular target: T1, Pgrmc1 (Homo sapiens, UniProt O00264); experiment: Western blot of Pgrmc1 levels in MDA-MB-468 cells; type: cell-based
T1 sequence (O00264 whole entry): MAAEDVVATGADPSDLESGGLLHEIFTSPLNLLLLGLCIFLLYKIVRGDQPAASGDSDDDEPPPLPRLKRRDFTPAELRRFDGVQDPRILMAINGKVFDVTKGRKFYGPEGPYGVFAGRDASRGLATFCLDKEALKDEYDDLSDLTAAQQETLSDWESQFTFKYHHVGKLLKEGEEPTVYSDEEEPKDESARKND
Description: (§4) Immunological techniques. Cells were extracted in RIPA buffer (50 mM Tris, pH 8.0, 1% Nonidet P-40, 150 mM NaCl, 0.5% sodium deoxycholate, 0.1% sodium dodecyl sulfate, 1 mM phenylmethylsulfonyl fluoride, 10 μg/ml of aprotinin, leupeptin and pepstatin) for standard western blotting. The antibodies used in the study were anti-caveolin-1 (N-20, Santa Cruz Biologicals, # sc-894), anti-EGFR (1005, Santa Cruz, # sc-03), anti-ku70 (A-9, Santa Cruz # sc-5309), anti-Met (C-12, Santa Cruz # sc-10), anti-PARP (H-250, Santa Cruz # sc-7150), anti-phosphotyrosine (P-Tyr-100, Cell Signaling), anti-Pgrmc1 (Novus Biologics) and anti-tubulin (Neomarkers). Some western blots for Pgrmc1 were performed with a polyclonal antibody called anti-PGR-UK1 which was raised in rabbits to an internal 10 amino acid peptide.

AtMAPR2 = molecular target: T2, AtMAPR2 (Arabidopsis thaliana, UniProt Q9SK39); conditions: in silico screen then binding assay, 2005; cited from earlier work
T2 sequence (Q9SK39 1-100): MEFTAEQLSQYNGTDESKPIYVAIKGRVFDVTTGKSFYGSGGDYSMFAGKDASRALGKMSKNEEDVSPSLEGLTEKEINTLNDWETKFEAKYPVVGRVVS

H358 = experiment: AG-205 viability assay in H358 cells; type: cell-based; conditions: H358, lung, serum-starved, EGFR wild-type
Description: (§5) Proliferation, anchorage-independent growth and migration assays. For growth curves, cells were plated in 24 well dishes and grown in 10% serum-containing medium. At various times, the cells were harvested with trypsin and fixed with formaldehyde added to a final concentration of 3.7%. Following the harvest of the final time point, the cells from each time point were counted using a Bright-line hemocytometer (Hausser Scientific).
(§6) MTT viability assays were performed as described previously. Briefly, cells were plated in 96-well tissue culture dishes and grown in various media with different drug doses. The cells were then incubated with 0.5 mg/ml of 3-[4,5-dimethylthiazol-2-y]-2,5-diphenyltetrazolium bromide for 1.5 hours, at which time the media was removed, the precipitated crystals were dissolved in dimethyl sulfoxide, and the absorbance at 590 nm was measured using a Bio-Tek μQuant spectrophotometer.

EGFR = experiment: Western blot of EGFR levels in MDA-MB-468 cells; type: cell-based, human; conditions: 12-50 μM dose
Description: as §2, §3

ku70 [4] = experiment: Western blot of ku70 in A549 cells; type: cell-based, human
Description: as §2, §3

Pgrmc1 [5] = molecular target: T1, Pgrmc1; experiment: Western blot of Pgrmc1 in A549 cells; type: cell-based; set-up: endogenous in cells; host or cells: A549 cells; conditions: A549 cells, 2, 10 or 50 μM for 24 hours
Description: (A) Graph of triplicate FACS analysis. […] (B) Protein expression was analyzed by western blot for Pgrmc1 (top) and ku70 (bottom). Cells were treated with 0 (lanes 1), 2 (lanes 2), 10 (lanes 3) or 50 (lanes 4) μM AG-205 for 24 hours. […] (C-D) The panels show western blots of phosphorylated ERK1/2 (upper panels) and total ERK1/2 (lower panels) The lanes in panel C are A549/con (lane 1), A549/RNAi (lane 2), A549/LacZ (lane 3) and A549/PGR-hbd cells (lane 4) following 48 hours serum starvation. The cells infected with adenovirus were similar to those described in FIG. 3, panels C and D. In panel D, A549 cells were treated with vehicle (lane 1) or 20 μM AG-205 (lane 2) for 24 hours in serum-free media. (E) A549/con (solid line) or A549/RNAi (dashed line) cells were treated with increasing doses of AG-205 for 72 hours and viability was measured by counting, and “% viability” refers to the cell number relative to the untreated control. (F) Cells expressing LacZ (solid line) or the Pgrmc1-hbd heme binding-deficient mutant (dashed line), were treated with increasing doses of AG-205. […] Percent viability was determined by cell counting, and “% viability” refers to the cell number relative to the untreated control. For each experiment, the results are representative of experiments performed at least in duplicate.
as §3

H157 = experiment: AG-205 viability assay in H157 cells; type: cell-based; conditions: H157, lung, serum-starved, EGFR wild-type
Description: as §5, §6

focal adhesion kinase = experiment: Western blot of focal adhesion kinase in A549 cells; type: cell-based, human
Description: as §4

A549 cells [6] = experiment: Viability of A549 cells; type: cell-based, human
Description: (A) Pgrmc1 (SEQ ID NO: 7) shares homology with AtMAPR2 (SEQ ID NO: 8) (underlined residues), which was the target for a screen for small molecule ligands. The putative heme-binding Tyr106 and Tyr112 are indicated with black boxes. (B) The molecular structure of AG-205 includes multiple aromatic components. (C) Spectroscopic scan of Pgrmc1 with vehicle control compared with vehicle plus 50 µM AG-205. The decrease in relative absorbance at 400 nm is consistent with an AG-205-induced change in the spectral properties of Pgrmc1-heme. The scan is representative of four separate scans using different Pgrmc1 protein preparations. The lower scan is a comparison of purified Pgrmc1 without and with the vehicle control (DMSO). Panels D (A549 cells) and E (MDA-MB-231 cells) are viability assays of cells maintained in 0.1% serum (solid line) or 10% serum (dashed line) and treated with increasing doses of AG-205. Percent viability was determined by cell counting, and “% viability” refers to the cell number relative to the untreated control.
as §1, §5, §6

Cc1ccc2c(c1)[C@H]1CN(C)CC[C@H]1N2C(=O)CSc1nnnn1-c1ccc(Cl)cc1 [AG-205]
IC50 (HCC827; HCC827, lung, serum-starved, EGFR ΔE746-A750): > 100 µM
sensitivity to growth inhibition (HCC827; HCC827 cells, ΔE746-A750 EGFR): relatively insensitive
Ku70 levels (ku70 [1]): not affected
cell cycle distribution (A549 cells [2]): significant G1 arrest and accumulation of sub-G1 cells
increase in Pgrmc1 levels (Pgrmc1 [3]; 12 μM dose): 4.8 fold
Pgrmc1 levels (Pgrmc1 [3]; doses of 25 and 50 μM): nearly undetectable levels
binding to At Pgrmc1 (AtMAPR2) (AtMAPR2): bind to At Pgrmc1
IC50 (H358): 12 µM
decrease in EGFR levels (EGFR): 14 fold
ku70 levels (ku70 [4]): unaffected
Pgrmc1 expression (Pgrmc1 [5]): increases Pgrmc1 expression
IC50 (H157): 10 µM
stability of focal adhesion kinase (focal adhesion kinase): little effect
IC50 (A549 cells [6]; A549, lung, serum-starved, EGFR wild-type, read-out: IC50 values for AG-205, Serum-starved): 15 µM
cell viability (A549 cells [6]; A549 cells, 20 μM dose, 72-96 hours after treatment): marked loss of viability
decrease in viability / cells killed (A549 cells [6]; A549 cells, single agent): 47%
cell growth inhibition (A549 cells [6]; A549 cells, wild-type EGFR): efficiently inhibited cell growth
toxicity in Pgrmc1-inhibited A549 cells (A549 cells [6]; Pgrmc1-inhibited versus control A549 cells, after 36 hours, P=0.0001): decreased toxicity
viability of Pgrmc1-hbd-expressing cells (A549 cells [6]; cells expressing heme binding-deficient mutant, increasing doses of AG-205, cell counting): partially reversed the loss of viability
